Test results: publication PMC7898615 (Chemistry (Weinheim an Der Bergstrasse, Germany), 2020)

Biological target: T1, tryptophan synthase (TS) complex, TrpA:TrpB (Salmonella enterica, UniProt P0A2K1)
T1 sequence (P0A2K1 1-397): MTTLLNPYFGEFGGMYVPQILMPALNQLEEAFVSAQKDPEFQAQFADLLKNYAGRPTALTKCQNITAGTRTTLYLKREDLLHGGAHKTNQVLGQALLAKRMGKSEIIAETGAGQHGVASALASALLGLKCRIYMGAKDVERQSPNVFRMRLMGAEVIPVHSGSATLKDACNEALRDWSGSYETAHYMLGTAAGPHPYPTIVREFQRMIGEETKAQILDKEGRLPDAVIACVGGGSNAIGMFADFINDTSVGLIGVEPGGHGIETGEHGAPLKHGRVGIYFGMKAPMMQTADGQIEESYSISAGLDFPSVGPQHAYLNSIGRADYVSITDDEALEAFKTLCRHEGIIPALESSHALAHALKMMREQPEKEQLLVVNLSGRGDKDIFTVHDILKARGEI
T1 sequence (P00929 1-268 partner): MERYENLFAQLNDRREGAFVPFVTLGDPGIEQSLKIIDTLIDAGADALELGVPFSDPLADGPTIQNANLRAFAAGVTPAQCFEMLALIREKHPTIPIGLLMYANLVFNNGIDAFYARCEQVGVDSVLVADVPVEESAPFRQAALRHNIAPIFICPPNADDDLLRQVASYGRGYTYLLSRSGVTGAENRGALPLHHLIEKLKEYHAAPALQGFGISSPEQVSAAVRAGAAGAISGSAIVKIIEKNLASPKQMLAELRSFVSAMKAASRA
Experiment: coupled VioA/HRP assay of Trp formation, […] nm, global fit
Assay type: biochemical

| Compound | Ki [µM] |
| --- | --- |
| O=C(NCCCCCOP(=O)(O)O)c1ccc(/N=N\c2ccccc2)cc1 [4e, 4 e (Z isomer)] | 930 ± 420 |
| O=C(NCCCCOP(=O)(O)O)c1ccc(/N=N\c2ccccc2)cc1 [4d, 4 d (Z isomer)] | > 4000 |
| O=C(NCCCCOP(=O)(O)O)c1ccc(/N=N/c2ccccc2)cc1 [4d, (E)‐4‐(4‐(phenyldiazenyl)benzamido)butyl dihydrogen phosphate] | 640 ± 80 |

The next lines start with the values.

| Ki [µM] | Compound |
| --- | --- |
| 180 ± 40 | O=C(NCCCCCOP(=O)(O)O)c1ccc(/N=N/c2ccccc2)cc1 [4e, (E)‐5‐(4‐(phenyldiazenyl)benzamido)pentyl dihydrogen phosphate] |
| 50 | O=C(NCCCCCCOP(=O)(O)O)c1ccc(/N=N/c2ccccc2)cc1 [4f, (E)‐6‐(4‐(phenyldiazenyl)benzamido)hexyl dihydrogenphosphate] |
| 100 ± 10 | O=C(NCCCCCCOP(=O)(O)O)c1ccc(/N=N\c2ccccc2)cc1 [4f, 4 f (Z isomer)] |
